Counter-ions that a name gives are not always drawn.
System: HCT 116 cells transfected with a luciferase reporter under the control of an HIF-responsive sequence
Assay: HIF-luciferase assay
Type: cell-based
Conditions: Homo sapiens; HCT 116 HIF-luciferase reporter cells, hypoxia chamber (1% O2), 24 h, luminescence
Experimental: HCT 116 cells were transfected in a stable manner with a plasmid which contained a luciferase reporter under the control of an HIF-responsive sequence. These cells were sown in microtitre plates [20,000 cells/cavity in RPMI 1640 medium with 10% foetal calf serum (FCS) and 100 μg/ml of hygromycin]. Incubation was carried out overnight under standard conditions (5% CO2, 21% O2, 37° C., moistened). The following morning the cells were incubated with various concentrations of the test substances (0-10 μmol/l) in a hypoxia chamber (1% O2). After 24 h, Bright Glo reagent (Promega, Wis., USA) was added in accordance with the manufacturer'/s instructions, and after 5 min the luminescence was measured. Cells which were incubated under normoxia served as background controls.

Row | SMILES | IC50
1 | Cc1cc(-c2nc(-c3ccc(C4(C(F)(F)F)CC4)cc3)no2)nn1Cc1cccc(C(=O)N2CCN(C)CC2)c1 [Example 137, (4-Methylpiperazin-1-yl)(3-{[5-methyl-3-(3-{4-[1-(trifluoromethyl)cyclopropyl]phenyl}-1,2,4-oxadiazol-5-yl)-1H-pyrazol-1-yl]methyl}phenyl)methanone] | 3 nM
2 | Cc1cc(-c2nc(-c3ccc(OC(F)(F)F)cc3)no2)nn1Cc1cccc(C(=O)N2CCCO2)c1 [Example 100, {3-[(5-Methyl-3-{3-[4-(trifluoromethoxy)phenyl]-1,2,4-oxadiazol-5-yl}-1H-pyrazol-1-yl)methyl]-phenyl}(1,2-oxazolidin-2-yl)methanone] | 2.5 nM
3 | Cc1cc(-c2nc(-c3ccc(OC(F)(F)F)cc3)no2)cn1Cc1cccc(C(=O)N2CCN(C)CC2)c1 [Example 52] | 3 nM
4 | Cc1cc(-c2nc(-c3ccc(OC(F)(F)F)cc3)no2)nn1Cc1cccc(C(=O)N2CCN(C3CC3)CC2)c1 [Example 35] | 2 nM
5 | Cc1cc(-c2nc(-c3ccc(OC(F)(F)F)cc3)no2)nn1Cc1ccnc(N2CC(N(C)C)C2)c1 [Example 18] | 5 nM
6 | Cc1cc(-c2nc(-c3cccc(OC(F)(F)F)c3)no2)nn1Cc1cccc(C(=O)N2CCN(C)CC2)c1 [Example 119, (4-Methylpiperazin-1-yl) {3-[(5-methyl-3-{3-[3-(trifluoromethoxy)phenyl]-1,2,4-oxadiazol-5-yl}-1H-pyrazol-1-yl)methyl]phenyl}methanone hydrochloride] | 20 nM
7 | Cc1cc(-c2nc(-c3ccc(C4CCOCC4)cc3)no2)nn1Cc1ccnc(N2CCN(C3CC3)CC2)c1 [Example 71, 1-Cyclopropyl-4-{4-[(5-methyl-3-{3-[4-(tetrahydro-2H-pyran-4-yl)phenyl]-1,2,4-oxadiazol-5-yl}-1H-pyrazol-1-yl)methyl]pyridin-2-yl}piperazine] | 1 nM
8 | Cc1cc(-c2nc(-c3ccc(C4(F)CCOCC4)cc3)no2)nn1Cc1cccc(C(=O)N2CCN(C)CC2)c1 [Example 45] | 10 nM
9 | Cc1cc(-c2nc(-c3ccc(S(=O)(=O)C(F)(F)F)cc3)no2)nn1Cc1cccc(C(=O)N2CCN(C)CC2)c1 [Example 41] | 6 nM
10 | COCC1(c2ccc(-c3noc(-c4cc(C)n(Cc5ccnc(N6CCN(C7CC7)CC6)c5)n4)n3)cc2)CCC1 [Example 77, 1-Cyclopropyl-4-(4-{[3-(3-{4-[1-(methoxymethyl)cyclobutyl]phenyl}-1,2,4-oxadiazol-5-yl)-5-methyl-1H-pyrazol-1-yl]methyl}pyridin-2-yl)piperazine] | 1 nM
11 | Cc1cc(-c2nc(-c3ccc(OC(F)(F)F)cc3)no2)nn1Cc1ccnc(N2CCN(C)C(=O)C2)c1 [Example 86, 1-Methyl-4-{4-[(5-methyl-3-{3-[4-(trifluoromethoxy)phenyl]-1,2,4-oxadiazol-5-yl}-1H-pyrazol-1-yl)methyl]pyridin-2-yl}piperazin-2-one] | 4 nM
12 | Cc1cc(-c2nc(-c3ccc(C(C)(C)C(F)(F)F)cc3)no2)nn1Cc1cccc(S(=O)(=O)N2CCC(O)CC2)c1 [Example 140, 1-({3-[(5-Methyl-3-{3-[4-(1,1,1-trifluoro-2-methylpropan-2-yl)phenyl]-1,2,4-oxadiazol-5-yl}-1H-pyrazol-1-yl)methyl]phenyl}sulfonyl)piperidin-4-ol] | 4 nM
13 | Cc1cc(-c2nc(-c3ccc(C(C)(C)C)cc3)no2)nn1Cc1ccnc(N2CCN(CC(F)(F)F)CC2)c1 [Example 78, 1-[4-({3-[3-(4-tert-Butylphenyl)-1,2,4-oxadiazol-5-yl]-5-methyl-1H-pyrazol-1-yl}methyl)pyridin-2-yl]-4-(2,2,2-trifluoroethyl)piperazine] | 0.5 nM

Now from value to molecule:

Row | IC50 | SMILES
14 | 4 nM | Cc1cc(-c2nc(-c3ccc(OC(F)(F)F)cc3)no2)nn1Cc1ccnc(N2CCC(N(C)C)CC2)c1 [Example 16, N,N-Dimethyl-1-{4-[(5-methyl-3-{3-[4-(trifluoromethoxy)phenyl]-1,2,4-oxadiazol-5-yl}-1H-pyrazol-1-yl)methyl]pyridin-2-yl}piperidin-4-amine]
15 | 0.6 nM | Cc1cc(-c2nc(-c3ccc(OC(F)(F)F)cc3)no2)nn1Cc1ccnc(N2CCN(C3CC3)CC2)c1 [Example 65, 1-Cyclopropyl-4-{4-[(5-methyl-3-{3-[4-(trifluoromethoxy)phenyl]-1,2,4-oxadiazol-5-yl}-1H-pyrazol-1-yl)methyl]pyridin-2-yl}piperazine]
16 | 2 nM | Cc1cc(-c2nc(-c3ccc(OC(F)(F)F)cc3)no2)nn1Cc1ccnc(N2CCC(C#N)CC2)c1 [Example 85, 1-{4-[(5-Methyl-3-{3-[4-(trifluoromethoxy)phenyl]-1,2,4-oxadiazol-5-yl}-1H-pyrazol-1-yl)-methyl]pyridin-2-yl}piperidine-4-carbonitrile]
17 | 1 nM | Cc1cc(-c2nc(-c3ccc(OC(F)(F)F)cc3)no2)nn1Cc1ccnc(N2CCN(CC(F)(F)F)CC2)c1 [Example 72, 1-{4-[(5-Methyl-3-{3-[4-(trifluoromethoxy)phenyl]-1,2,4-oxadiazol-5-yl}-1H-pyrazol-1-yl)-methyl]pyridin-2-yl}-4-(2,2,2-trifluoroethyl)piperazine]
18 | 3 nM | COC1CCN(c2cc(Cn3nc(-c4nc(-c5ccc(OC(F)(F)F)cc5)no4)cc3C)ccn2)CC1 [Example 150, 2-(4-Methoxypiperidin-1-yl)-4-[(5-methyl-3-{3-[4-(trifluoromethoxy)phenyl]-1,2,4-oxadiazol-5-yl}-1H-pyrazol-1-yl)methyl]pyridine]
19 | 0.6 nM | Cc1cc(-c2nc(-c3ccc(C4(C(F)(F)F)CC4)cc3)no2)nn1Cc1ccnc(N2CCN(C3CC3)CC2)c1 [Example 91, 1-Cyclopropyl-4-(4-{[5-methyl-3-(3-{4-[1-(trifluoromethyl)cyclopropyl]phenyl}-1,2,4-oxadiazol-5-yl)-1H-pyrazol-1-yl]methyl}pyridin-2-yl)piperazine]
20 | 10 nM | Cc1cc(-c2nc(-c3ccc(OC(F)(F)F)cc3)no2)nn1Cc1ccnc(N2CCN(C(C)C)CC2)c1 [Example 21]
21 | 0.8 nM | Cc1cc(-c2nc(-c3ccc(OC(F)(F)F)c(F)c3)no2)nn1Cc1ccnc(N2CCN(C3CC3)CC2)c1 [Example 93, 1-Cyclopropyl-4-{4-[(3-{3-[3-fluoro-4-(trifluoromethoxy)phenyl]-1,2,4-oxadiazol-5-yl}-5-methyl-1H-pyrazol-1-yl)methyl]pyridin-2-yl}piperazine]
22 | 1 nM | Cc1cc(-c2nc(-c3ccc(C(C)(C)C)cc3)no2)nn1Cc1ccnc(N2CCN(C3CC3)CC2)c1 [Example 75, 1-[4-({3-[3-(4-tert-Butylphenyl)-1,2,4-oxadiazol-5-yl]-5-methyl-1H-pyrazol-1-yl}methyl)pyridin-2-yl]-4-cyclopropylpiperazine]

Source: patent US20130196964A1, “HETEROCYCLICALLY SUBSTITUTED ARYL COMPOUNDS AS HIF INHIBITORS” (BAYER SCHERING PHARMA AKTIENGESELLSCHAFT, priority 2008, published 2013)
